Values joined by “and” are separate entries in the source; they are usually repeats but may differ in a detail not shown here. Equal entries are not always repeated. Toxic doses and inconclusive results are not listed.
System: L1210 leukemia ip in BDF1 mice, survival T/C
Experiment: NCI In Vivo Anticancer Drug Screen. Data for tumor model L1210 Leukemia (intraperitoneal) in B6D2F1 (BDF1) mice
Details: higher = longer survival
Procedure, shortened: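 Read-out is survival time, reported as the treated-group measurement over the vehicle-control measurement.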

[1] = endpoint: mean survival time, dose: 100.0 mg/kg/injection, schedule: Q01DX001 (ip), vehicle: Klucel (hydroxypropylcellulose) (HPC)
[2] = endpoint: mean survival time, dose: 100.0 mg/kg/injection, schedule: Q01DX009 (ip), vehicle: saline with Tween-80
[3] = endpoint: mean survival time, dose: 200.0 mg/kg/injection, schedule: Q01DX009 (ip), vehicle: saline with Tween-80
[4] = endpoint: mean survival time, dose: 400.0 mg/kg/injection, schedule: Q01DX009 (ip), vehicle: saline with Tween-80
[5] = endpoint: mean survival time, dose: 100.0 mg/kg/injection, schedule: Q04DX003 (ip), vehicle: saline
[6] = endpoint: mean survival time, dose: 100.0 mg/kg/injection, schedule: Q01DX009 (ip), vehicle: Klucel (hydroxypropylcellulose) (HPC)

In the case of `CCN(CC)c1ccc(-c2cc(NS(=O)(=O)c3ccccc3)ccc2NS(=O)(=O)c2ccccc2)cc1`, the T/C [1] is reported as 95 % of control.
For `Cc1ccc(S(=O)(=O)Nc2ccccc2)c(CC(O)(c2ccccc2)c2ccccc2)c1`, the T/C (endpoint: mean survival time, dose: 50.0 mg/kg/injection, schedule: Q01DX009 (ip), vehicle: saline with Tween-80) was 93 % of control, the T/C [2] was 86 % of control and the T/C [3] was 93 % of control.
For `O=C(Cc1ccccc1)Cc1ccccc1`, the T/C (endpoint: mean survival time, dose: 25.0 mg/kg/injection, schedule: Q01DX009 (ip), vehicle: water) was 104 % of control, the T/C (endpoint: mean survival time, dose: 50.0 mg/kg/injection, schedule: Q01DX009 (ip), vehicle: water) was 115 % of control and the T/C (endpoint: mean survival time, dose: 100.0 mg/kg/injection, schedule: Q01DX009 (ip), vehicle: water) was 104 % of control. The T/C (endpoint: mean survival time, dose: 200.0 mg/kg/injection, schedule: Q01DX009 (ip), vehicle: water) was 94 % of control and the T/C (endpoint: mean survival time, dose: 400.0 mg/kg/injection, schedule: Q01DX009 (ip), vehicle: water) was 94 % of control.
In the case of `CCCCCCC(C)Cl` (stereo not drawn), the T/C [2] is reported as 105 % of control, the T/C [3] is reported as 108 % of control and the T/C [4] is reported as 106 % of control.
`OCC1OC(n2cc(Br)c3c(=S)nc[nH]c32)C(O)C1O` (stereo not drawn) was tested, and the T/C (endpoint: mean survival time, dose: 100.0 mg/kg/injection, schedule: Q01DX001 (ip), vehicle: carboxymethylcellulose (CMC)) was 104 % of control, the T/C (endpoint: mean survival time, dose: 200.0 mg/kg/injection, schedule: Q01DX001 (ip), vehicle: carboxymethylcellulose (CMC)) was 110 % of control and the T/C (endpoint: mean survival time, dose: 400.0 mg/kg/injection, schedule: Q01DX001 (ip), vehicle: carboxymethylcellulose (CMC)) was 106 % of control.
With `C=C(NC(=O)Cc1ccccc1)C(=O)OC` the T/C [2] was 92 % of control, the T/C (endpoint: mean survival time, dose: 100.0 mg/kg/injection, schedule: Q04DX003 (ip), vehicle: saline with Tween-80) was 102 % of control and the T/C [3] was 95 % of control. The T/C (endpoint: mean survival time, dose: 200.0 mg/kg/injection, schedule: Q04DX003 (ip), vehicle: saline with Tween-80) was 95 % of control, the T/C [4] was 95 % of control and the T/C (endpoint: mean survival time, dose: 400.0 mg/kg/injection, schedule: Q04DX003 (ip), vehicle: saline with Tween-80) was 91 % of control.
`NN1CCN(N)C(=O)C1=O` was tested, and the T/C [5] was 105 % of control, the T/C (endpoint: mean survival time, dose: 200.0 mg/kg/injection, schedule: Q04DX003 (ip), vehicle: saline) was 108 % of control and the T/C (endpoint: mean survival time, dose: 400.0 mg/kg/injection, schedule: Q04DX003 (ip), vehicle: saline) was 97 % of control.
With `COC1(c2ccccc2)C(c2ccccc2)=CC(c2ccccc2)=[N+]1[O-]` (stereo not drawn) the T/C (endpoint: mean survival time, dose: 75.0 mg/kg/injection, schedule: Q04DX003 (ip), vehicle: saline) was 92 % of control, the T/C (endpoint: mean survival time, dose: 150.0 mg/kg/injection, schedule: Q04DX003 (ip), vehicle: saline) was 89 % of control and the T/C (endpoint: mean survival time, dose: 300.0 mg/kg/injection, schedule: Q04DX003 (ip), vehicle: saline) was 91 % of control.
For `CC(=O)Nc1ccc2c([N+](=O)[O-])cccc2c1-c1c(NC(C)=O)ccc2c([N+](=O)[O-])cccc12`, the T/C [6] was 101 % of control, the T/C (endpoint: mean survival time, dose: 100.0 mg/kg/injection, schedule: Q04DX003 (ip), vehicle: Klucel (hydroxypropylcellulose) (HPC)) was 88 % of control and the T/C (endpoint: mean survival time, dose: 200.0 mg/kg/injection, schedule: Q01DX009 (ip), vehicle: Klucel (hydroxypropylcellulose) (HPC)) was 105 % of control. For the same compound, the T/C (endpoint: mean survival time, dose: 200.0 mg/kg/injection, schedule: Q04DX003 (ip), vehicle: Klucel (hydroxypropylcellulose) (HPC)) was 97 % of control, the T/C (endpoint: mean survival time, dose: 400.0 mg/kg/injection, schedule: Q01DX009 (ip), vehicle: Klucel (hydroxypropylcellulose) (HPC)) was 98 % of control and the T/C (endpoint: mean survival time, dose: 400.0 mg/kg/injection, schedule: Q04DX003 (ip), vehicle: Klucel (hydroxypropylcellulose) (HPC)) was 92 % of control.
In the case of `O=S(=O)(F)c1cc(Cl)c(S)c(Cl)c1`, the T/C [6] is reported as 100 % of control.
With `C[CH2][Ge]([CH2]C)[CH2]C.C[CH2][Ge]([CH2]C)[CH2]C` the T/C (endpoint: mean survival time, dose: 100.0 mg/kg/injection, schedule: Q01DX001 (ip), vehicle: saline with Tween-80) was 94 % of control, the T/C (endpoint: mean survival time, dose: 100.0 mg/kg/injection, schedule: Q04DX002 (ip), vehicle: saline with Tween-80) was 95 % of control and the T/C (endpoint: mean survival time, dose: 200.0 mg/kg/injection, schedule: Q01DX001 (ip), vehicle: saline with Tween-80) was 90 % of control. The T/C (endpoint: mean survival time, dose: 200.0 mg/kg/injection, schedule: Q04DX002 (ip), vehicle: saline with Tween-80) was 95 % of control and the T/C (endpoint: mean survival time, dose: 400.0 mg/kg/injection, schedule: Q04DX002 (ip), vehicle: saline with Tween-80) was 92 % of control.
With `O=C1c2ccccc2-c2c3c(cc4ccnc1c24)OCO3` the T/C [1] was 93 % of control, the T/C (endpoint: mean survival time, dose: 200.0 mg/kg/injection, schedule: Q01DX001 (ip), vehicle: Klucel (hydroxypropylcellulose) (HPC)) was 96 % of control and the T/C (endpoint: mean survival time, dose: 400.0 mg/kg/injection, schedule: Q01DX001 (ip), vehicle: Klucel (hydroxypropylcellulose) (HPC)) was 100 % of control.
`Cc1[nH]c(=O)[nH]c(=O)c1CN(C)Cc1cc(Cl)cc(Cl)c1O` was tested, and the T/C (endpoint: mean survival time, dose: 50.0 mg/kg/injection, schedule: Q01DX001 (ip), vehicle: saline) was 95 % of control, the T/C (endpoint: mean survival time, dose: 100.0 mg/kg/injection, schedule: Q01DX001 (ip), vehicle: saline) was 95 % of control and the T/C (endpoint: mean survival time, dose: 200.0 mg/kg/injection, schedule: Q01DX001 (ip), vehicle: saline) was 95 % of control. For the same compound, the T/C (endpoint: mean survival time, dose: 400.0 mg/kg/injection, schedule: Q01DX001 (ip), vehicle: saline) was 101 % of control.
With `OCCN(Cc1cccnc1)Cc1ccccn1` the T/C (endpoint: mean survival time, dose: 9.38 mg/kg/injection, schedule: Q01DX001 (ip), vehicle: saline) was 94 % of control and the T/C (endpoint: mean survival time, dose: 18.75 mg/kg/injection, schedule: Q01DX001 (ip), vehicle: saline) was 100 % of control.
`CC[C@H]1CN2CCc3cc(OC)c(OC)cc3[C@@H]2C[C@@H]1C[C@H]1NCCc2c1[nH]c1ccc(OC)cc21` was tested, and the T/C (endpoint: mean survival time, dose: 0.5 mg/kg/injection, schedule: Q01DX009 (ip), vehicle: saline) was 103 % of control, the T/C (endpoint: mean survival time, dose: 1.0 mg/kg/injection, schedule: Q01DX009 (ip), vehicle: saline) was 105 % of control and the T/C (endpoint: mean survival time, dose: 2.0 mg/kg/injection, schedule: Q01DX005 (ip), vehicle: saline) was 113 % of control. For the same compound, the T/C (endpoint: mean survival time, dose: 2.0 mg/kg/injection, schedule: Q01DX009 (ip), vehicle: saline) was 107 % of control, the T/C (endpoint: mean survival time, dose: 2.0 mg/kg/injection, schedule: Q04DX003 (ip), vehicle: saline) was 115 % of control and the T/C (endpoint: mean survival time, dose: 4.0 mg/kg/injection, schedule: Q01DX005 (ip), vehicle: saline) was 117 % of control. For the same compound, the T/C (endpoint: mean survival time, dose: 4.0 mg/kg/injection, schedule: Q01DX009 (ip), vehicle: saline) was 114 % of control, the T/C (endpoint: mean survival time, dose: 4.0 mg/kg/injection, schedule: Q04DX003 (ip), vehicle: saline) was 123 % of control and the T/C (endpoint: mean survival time, dose: 8.0 mg/kg/injection, schedule: Q04DX003 (ip), vehicle: saline) was 109 % of control. For the same compound, the T/C (endpoint: mean survival time, dose: 16.0 mg/kg/injection, schedule: Q01DX009 (ip), vehicle: saline) was 117 % of control, the T/C (endpoint: mean survival time, dose: 16.0 mg/kg/injection, schedule: Q04DX003 (ip), vehicle: saline) was 124 % of control and the T/C (endpoint: mean survival time, dose: 32.0 mg/kg/injection, schedule: Q04DX003 (ip), vehicle: saline) was 152 % of control. For the same compound, the T/C (endpoint: median survival time, dose: 4.0 mg/kg/injection, schedule: Q04DX003 (ip), vehicle: saline + alcohol) was 101 % of control, the T/C (endpoint: median survival time, dose: 8.0 mg/kg/injection, schedule: Q04DX003 (ip), vehicle: saline + alcohol) was 104 % of control and the T/C (endpoint: median survival time, dose: 16.0 mg/kg/injection, schedule: Q04DX003 (ip), vehicle: saline + alcohol) was 117 % of control. For the same compound, the T/C (endpoint: median survival time, dose: 64.0 mg/kg/injection, schedule: Q04DX003 (ip), vehicle: saline + alcohol) was 86 % of control.
`CCOc1ccc(Br)cc1/C=N\N=C\c1cc(Br)ccc1OCC` was tested, and the T/C (endpoint: mean survival time, dose: 25.0 mg/kg/injection, schedule: Q01DX009 (ip), vehicle: saline) was 101 % of control, the T/C (endpoint: mean survival time, dose: 50.0 mg/kg/injection, schedule: Q01DX009 (ip), vehicle: saline) was 100 % of control and the T/C (endpoint: mean survival time, dose: 100.0 mg/kg/injection, schedule: Q01DX009 (ip), vehicle: saline) was 100 % of control. For the same compound, the T/C [5] was 86 % of control.
`CCCCCCCCCCCCCCCCCC1=NCCN1` was tested, and the T/C (endpoint: mean survival time, dose: 6.25 mg/kg/injection, schedule: Q01DX009 (ip), vehicle: Klucel (hydroxypropylcellulose) (HPC)) was 95 % of control, the T/C (endpoint: mean survival time, dose: 12.5 mg/kg/injection, schedule: Q01DX009 (ip), vehicle: Klucel (hydroxypropylcellulose) (HPC)) was 87 % of control and the T/C (endpoint: mean survival time, dose: 25.0 mg/kg/injection, schedule: Q01DX009 (ip), vehicle: Klucel (hydroxypropylcellulose) (HPC)) was 92 % of control. The T/C (endpoint: mean survival time, dose: 25.0 mg/kg/injection, schedule: Q04DX002 (ip), vehicle: Klucel (hydroxypropylcellulose) (HPC)) was 103 % of control, the T/C (endpoint: mean survival time, dose: 50.0 mg/kg/injection, schedule: Q01DX001 (ip), vehicle: other) was 91 % of control and the T/C (endpoint: mean survival time, dose: 50.0 mg/kg/injection, schedule: Q04DX002 (ip), vehicle: Klucel (hydroxypropylcellulose) (HPC)) was 103 % of control. The T/C (endpoint: mean survival time, dose: 100.0 mg/kg/injection, schedule: Q01DX001 (ip), vehicle: other) was 97 % of control, the T/C (endpoint: mean survival time, dose: 100.0 mg/kg/injection, schedule: Q04DX002 (ip), vehicle: Klucel (hydroxypropylcellulose) (HPC)) was 95 % of control and 98 % of control and the T/C (endpoint: mean survival time, dose: 200.0 mg/kg/injection, schedule: Q01DX001 (ip), vehicle: other) was 89 % of control. The T/C (endpoint: mean survival time, dose: 400.0 mg/kg/injection, schedule: Q01DX001 (ip), vehicle: other) was 97 % of control.
